Test [1] addresses T1, myeloperoxidase (Homo sapiens, UniProt P05164).
T1 sequence (P05164 49-745): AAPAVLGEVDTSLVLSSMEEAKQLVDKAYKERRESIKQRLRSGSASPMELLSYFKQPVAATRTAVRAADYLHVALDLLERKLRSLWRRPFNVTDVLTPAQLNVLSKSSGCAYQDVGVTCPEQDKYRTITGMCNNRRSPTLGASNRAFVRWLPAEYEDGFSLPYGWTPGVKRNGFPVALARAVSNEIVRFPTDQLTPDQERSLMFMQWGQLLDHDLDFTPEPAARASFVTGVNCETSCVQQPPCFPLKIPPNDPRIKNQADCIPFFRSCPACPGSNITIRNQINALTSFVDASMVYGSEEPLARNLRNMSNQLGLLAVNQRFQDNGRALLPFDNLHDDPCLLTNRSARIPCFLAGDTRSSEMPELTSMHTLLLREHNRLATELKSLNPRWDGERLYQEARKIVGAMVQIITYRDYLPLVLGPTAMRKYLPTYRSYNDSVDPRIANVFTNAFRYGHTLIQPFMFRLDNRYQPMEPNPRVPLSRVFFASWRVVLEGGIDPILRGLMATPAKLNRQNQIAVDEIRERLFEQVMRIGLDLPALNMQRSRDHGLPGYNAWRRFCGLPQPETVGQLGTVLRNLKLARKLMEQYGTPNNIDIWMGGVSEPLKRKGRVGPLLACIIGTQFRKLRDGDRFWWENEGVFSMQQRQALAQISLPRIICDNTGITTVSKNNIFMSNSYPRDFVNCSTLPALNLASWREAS
Put plainly: MPO Peroxidation Assay (Amplex Red Assay). Conditions: potency range class, read-out: Amplex Red Assay IC50 value. The class given is biochemical.

In test [2] the target is T1, myeloperoxidase. In words: MPO Chlorination Assay (APF Assay). The class given is biochemical. Conditions: potency range class, read-out: APF Assay IC50 value.

Molecules are shown by their SMILES.

`Nc1cc(C(CCC(=O)Cc2ccccc2)c2ccccc2)c2nn[nH]c2n1` (centres unmarked) [Example 233, 5-(5-amino-3H-[1,2,3]triazolo[4,5-b]pyridin-7-yl)-1,5-diphenylpentan-2-one]: the 50% inhibitory concentration (IC50) in test [1] fell in the range of 1 to 100 nM; in test [2], 101 to 999 nM.

`Nc1cc(C(CCC(O)Cc2ccccc2)c2ccccc2)c2nn[nH]c2n1` (centres unmarked) [Example 234, 5-(5-amino-3H-[1,2,3]triazolo[4,5-b]pyridin-7-yl)-1,5-diphenylpentan-2-ol]: the IC50 in test [1] and in test [2] was 101 to 999 nM each time.

Take `Nc1cc(C(CCC(N)Cc2ccccc2)c2ccccc2)c2nn[nH]c2n1` (centres unmarked) [Example 235, 7-(4-amino-1,5-diphenylpentyl)-3H-[1,2,3]triazolo[4,5-b]pyridin-5-amine]: the concentration for half-maximal inhibition (IC50) in test [1] and in test [2] was 101 to 999 nM throughout.

`Nc1cc(C(CCN[C@@H](CO)CCCc2ccccc2)c2ccccc2)c2nn[nH]c2n1` (stereo partly drawn) [Example 236, (R)-2-((3-(5-amino-3H-[1,2,3]triazolo[4,5-b]pyridin-7-yl)-3-phenylpropyl)amino)-5-phenylpentan-1-ol]: the figures for the IC50 in test [1] and in test [2] were 1000 to 10000 nM and 1 to 100 nM, respectively.

With `Nc1cc([C@H](CCO)c2ccccc2)c2nn[nH]c2n1` [Example 237, (R)-3-(5-amino-3H-[1,2,3]triazolo[4,5-b]pyridin-7-yl)-3-phenylpropan-1-ol], the IC50 in test [1] and in test [2] was 101 to 999 nM throughout.

Take `Nc1cc([C@H](Cc2nc3cccc(-c4ccccc4)c3[nH]2)c2ccccc2)c2nn[nH]c2n1` [Example 238, (R)-7-(1-phenyl-2-(7-phenyl-1H-benzo[d]imidazol-2-yl)ethyl)-3H-[1,2,3]triazolo[4,5-b]pyridin-5-amine]: the IC50 was 101 to 999 nM in test [1] and 1 to 100 nM in test [2].

For `Nc1cc([C@H](Cc2nc3ccccc3s2)c2ccccc2)c2nn[nH]c2n1` [Example 239, (R)-7-(2-(benzo[d]thiazol-2-yl)-1-phenylethyl)-3H-[1,2,3]triazolo[4,5-b]pyridin-5-amine], the IC50 in test [1] was 1 to 100 nM; in test [2], 101 to 999 nM.

Consider `Nc1cc([C@H](Cc2nc3ccccc3o2)c2ccccc2)c2nn[nH]c2n1` [Example 240, (R)-7-(2-(benzo[d]oxazol-2-yl)-1-phenylethyl)-3H-[1,2,3]triazolo[4,5-b]pyridin-5-amine], for which the IC50 in test [1] and in test [2] was 101 to 999 nM each time.

On to `Nc1cc([C@H](Cc2nc3ccc(-c4ccccc4)cc3c(=O)[nH]2)c2ccccc2)c2nn[nH]c2n1` [Example 241], for which the IC50 was in the range of 101 to 999 nM in test [1] and 1 to 100 nM in test [2].

For `Nc1cc([C@H](Cc2nc3ccc(-c4ccccc4)cc3s2)c2ccccc2)c2nn[nH]c2n1` [Example 242, (R)-7-(1-phenyl-2-(6-phenylbenzo[d]thiazol-2-yl)ethyl)-3H-[1,2,3]triazolo [4,5-b]pyridin-5-amine], the IC50 in test [1] and in test [2] was 1 to 100 nM throughout.

On to `CN(C)C(=O)c1cccc(-c2cccc3[nH]c(C[C@H](c4ccccc4)c4cc(N)nc5[nH]nnc45)nc23)c1` [Example 243, (R)-3-(2-(2-(5-amino-3H-[1,2,3]triazolo [4,5-b]pyridin-7-yl)-2-phenylethyl)-1H-benzo[d]imidazol-4-yl)-N,N-dimethylbenzamide], for which the figures for the concentration for half-maximal inhibition (IC50) in test [1] and in test [2] were 101 to 999 nM and 1 to 100 nM, respectively.

Consider `Nc1cc([C@H](Cc2nc3c(-c4ccccc4)cc(Cl)cc3[nH]2)c2ccccc2)c2nn[nH]c2n1` [Example 244, (R)-7-(2-(6-chloro-4-phenyl-1H-benzo[d]imidazol-2-yl)-1-phenylethyl)-3H-[1,2,3]triazolo[4,5-b]pyridin-5-amine], for which the IC50 is 101 to 999 nM in test [1] and 1 to 100 nM in test [2].

As for `NC(=O)c1cccc(-c2cccc3[nH]c(C[C@H](c4ccccc4)c4cc(N)nc5[nH]nnc45)nc23)c1` [Example 245, (R)-3-(2-(2-(5-amino-3H-[1,2,3]triazolo [4,5-b]pyridin-7-yl)-2-phenylethyl)-1H-benzo[d]imidazol-4-yl)benzamide], the IC50 fell in the range of 101 to 999 nM in test [1] and 1 to 100 nM in test [2].
